For one experiment, the system named is iPLA2. Description: Phospholipase A2 (iPLA2) activity assay in day 8 3T3-L1 cell homogenates with radiolabelled POPC. Format: biochemical. As to conditions: 10 μM BEL, 3 min preincubation, day 8 cell homogenate, FIG. 3B. The procedure: FIG. 3. Activities of PLA2 in 3T3-L1 cells during differentiation and their inhibition by BELs. 3T3-L1 cells were cultured and induced to differentiation as described in “Test Procedures.” At indicated differentiation stages, cell homogenates were prepared as described in “Test Procedures.” Phospholipase A2 activity was assessed by incubating 3T3-L1 cell protein (100-200 μg) with radiolabelled 1-palmitoyl-2-[1-^14C]-oleoyl-sn-glycerol-3-phosphocholine (POPC) (50 mCi/mmol, 5 μM final concentration, introduced by ethanol injection (2 μL)) in assay buffer (final conditions: 100 mM Tris-HCl, 4 mM EGTA, pH=7.2) at 37° C. for 30 min in a final volume of 200 μL. Reactions were quenched by addition of butanol (100 μL). 30 microliters of the organic phase was spotted on a Whatman silica plate which was developed with a nonpolar acidic mobile phase (100 mL of 70/30/1 petroleum ether/ethyl ether/acetic acid). Spots corresponding to fatty acids were scrapped into scintillation vials and radioactivity was quantified by scintillation spectrometry as described previously. A, iPLA2 activities of 3T3-L1 cells during differentiation. B, iPLA2 activities of homogenates of day 8 3T3-L1 cells after incubation at room temperature for 3 minutes in the absence or presence of 10 μM of (R)-BEL, (S)-BEL or racemic BEL.
On the day of the test, the media of 3T3-L1 cells at different stages of differentiation were removed. The cells were washed briefly with PBS and detached by incubation in trypsin-EDTA (0.25% w/v) at 37° C. for […]. The cells were washed again with 5 volumes of CMRL-1066, transferred to a 50 mL Falcon centrifuge tube and centrifuged for 5 min at 1700 rpm at 4° C. […] Briefly, phospholipase A2 activity was assessed by incubating 3T3-L1 cell protein (100-200 μg) with radiolabelled phosphatidylcholine, L-α-palmitoyl-2-oleoyl [oleoyl-1-^14C] […] Spots corresponding to fatty acids were scrapped into scintillation vials and radioactivity was quantified by scintillation spectrometry as described previously^(32). […]

The subject of another experiment is 3T3-L1 cells. Description: TAG accumulation during hormone-induced differentiation of 3T3-L1 cells (ESI/MS). Format: cell-based. As to conditions: 5, 10 μM BEL for 4 days, day 8, ESI/MS, FIG. 6. The procedure:
FIG. 5. Effects of siRNAs directed against iPLA2β or iPLA2γ on TAG accumulation during 3T3-L1 cell differentiation. 3T3-L1 cells were cultured and transfected with 20 nM negative control siRNA, siRNA directed against iPLA2β, or siRNA directed against iPLA2γ prior to induction to differentiation as described in “Test Procedures.” 3T3-L1 cells were grown to day 8 and the cell monolayer was washed with ice-cold PBS and scraped into 1 mL 50 mM LiCl. The lipids were extracted by the method of Bligh-Dyer^(33) in the presence of an internal standard (Tril7:0TAG, 200 nmol/mg protein). Mass spectral analysis of TAG was performed by ESI/MS as described in “Test Procedures.” ESI/MS spectra of TAG of day 8 3T3-L1 cells with pretreatment of negative control siRNA (A), siRNA directed against iPLA2β (B) or siRNA directed against iPLA2γ (C) were shown. The results of TAG quantification (D) represent means ±S.E.M. of at least three independent cultures.
FIG. 6. Effects of BELs on TAG accumulation during hormone-induced differentiation of 3T3-L1 cells. 3T3-L1 cells on two days post confluent were washed three times with DMEM, incubated at 37° C. for 20 min in DMEM with 0, 5, 10 μM racemic, R-, or S-BEL. The cells were induced to differentiate as described in “Test Procedures” in the presence of indicated concentrations of BELs for 4 days. […]

Another experiment deals with T1, iPLA2γ (Homo sapiens, UniProt Q9NP80).
T1 sequence (Q9NP80 1-782): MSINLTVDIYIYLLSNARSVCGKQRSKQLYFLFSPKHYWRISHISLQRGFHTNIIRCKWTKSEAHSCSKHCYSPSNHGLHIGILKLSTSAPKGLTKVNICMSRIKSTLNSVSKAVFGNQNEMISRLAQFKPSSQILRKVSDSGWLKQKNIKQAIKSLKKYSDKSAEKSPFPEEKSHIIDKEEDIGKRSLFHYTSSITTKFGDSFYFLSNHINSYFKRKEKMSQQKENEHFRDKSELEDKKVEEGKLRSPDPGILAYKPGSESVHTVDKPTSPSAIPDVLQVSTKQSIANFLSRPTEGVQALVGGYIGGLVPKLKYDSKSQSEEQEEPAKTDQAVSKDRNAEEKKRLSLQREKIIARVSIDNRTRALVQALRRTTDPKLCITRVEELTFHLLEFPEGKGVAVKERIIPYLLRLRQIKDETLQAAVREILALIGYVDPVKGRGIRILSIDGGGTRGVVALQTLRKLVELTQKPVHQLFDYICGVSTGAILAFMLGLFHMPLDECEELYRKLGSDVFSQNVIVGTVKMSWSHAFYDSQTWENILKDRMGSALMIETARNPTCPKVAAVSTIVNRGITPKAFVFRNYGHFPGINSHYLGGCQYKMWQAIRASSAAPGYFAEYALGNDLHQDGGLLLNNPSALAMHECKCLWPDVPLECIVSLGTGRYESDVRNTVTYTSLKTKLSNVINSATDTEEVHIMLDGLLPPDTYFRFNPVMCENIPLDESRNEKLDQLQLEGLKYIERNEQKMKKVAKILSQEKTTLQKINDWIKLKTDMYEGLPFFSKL
Particulars: previously demonstrated; cited from earlier work.

Another experiment concerns the target T2, iPLA2β (Homo sapiens, UniProt O60733).
T2 sequence (O60733 1-806): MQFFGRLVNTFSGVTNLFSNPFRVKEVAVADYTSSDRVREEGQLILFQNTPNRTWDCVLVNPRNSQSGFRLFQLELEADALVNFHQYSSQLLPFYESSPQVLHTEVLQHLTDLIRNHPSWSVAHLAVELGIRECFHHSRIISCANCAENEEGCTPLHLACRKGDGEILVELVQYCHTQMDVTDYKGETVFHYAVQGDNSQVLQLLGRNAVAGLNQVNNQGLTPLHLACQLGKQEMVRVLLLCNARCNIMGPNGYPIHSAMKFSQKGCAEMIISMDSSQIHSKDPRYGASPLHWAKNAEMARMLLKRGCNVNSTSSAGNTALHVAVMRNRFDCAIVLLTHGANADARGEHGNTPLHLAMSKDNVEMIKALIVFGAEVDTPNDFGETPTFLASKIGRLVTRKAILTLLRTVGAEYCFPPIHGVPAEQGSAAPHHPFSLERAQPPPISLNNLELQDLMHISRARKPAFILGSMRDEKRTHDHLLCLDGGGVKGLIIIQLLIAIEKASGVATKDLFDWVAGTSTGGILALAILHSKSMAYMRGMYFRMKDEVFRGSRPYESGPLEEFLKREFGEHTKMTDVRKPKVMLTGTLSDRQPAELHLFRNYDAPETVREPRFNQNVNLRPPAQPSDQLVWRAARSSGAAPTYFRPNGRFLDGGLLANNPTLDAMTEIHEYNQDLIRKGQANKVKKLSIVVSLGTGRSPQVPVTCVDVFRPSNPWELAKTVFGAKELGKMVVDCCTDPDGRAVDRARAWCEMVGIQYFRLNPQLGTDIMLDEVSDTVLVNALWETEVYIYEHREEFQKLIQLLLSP
As to conditions: previously demonstrated; cited from earlier work.

Take `O=C1O/C(=C/Br)CCC1c1cccc2ccccc12` (racemic) [racemic BEL]: the “inhibition of measured iPLA2 activity in 3T3-L1 adipocyte homogenate” value (from here on “inhibition of measured iPLA2 activity”) with iPLA2 is given as “inhibited”.
With `O=C1O/C(=C/Br)CC[C@@H]1c1cccc2ccccc12` [(R)-BEL], the “inhibition of measured iPLA2 activity” value with iPLA2 is “inhibited to similar levels”. For the same compound, the “adipocyte differentiation (TAG accumulation) with BEL” value with 3T3-L1 cells is given as “substantially decreased”. Besides, the “selectivity for iPLA2γ” value at iPLA2γ is recorded as “approximately an order of magnitude”.
Consider `O=C1O/C(=C/Br)CC[C@H]1c1cccc2ccccc12` [(S)-BEL], for which the “inhibition of measured iPLA2 activity” value in the experiment with iPLA2 is listed as “inhibited to similar levels”. Moreover, the “adipocyte differentiation (TAG accumulation) with BEL” value in the experiment on 3T3-L1 cells is recorded as “substantially decreased”. Further, the “selectivity for iPLA2β in comparison to iPLA2γ” value at iPLA2β was “approximately one order of magnitude”.

The values above are taken from patent US20050208031A1, “Inhibition of calcium-independent phospholipases A2beta or A2gamma inhibit hormone-induced differentiation of 3T3-L1 preadipocytes” (priority 2003, published 2005).
